Experimental data from US11793849B2, “Method of Chinese herbal medicine extract used for treating multiple diseases caused by drug resistant bacteria infection” (priority 2016, dated 2023).
Converted amounts (≈) assume the structure as drawn. Like-named read-outs stand apart in the source and are kept apart here.

System: MDRPA
Experiment: MIC determination, microdilution broth method;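 also: broth microdilution per NCCLS recommendations, testing Pithecellobium clypearia water or ethanol extracts against multidrug-resistant Pseudomonas aeruginosa, with MIC50 and MIC90 derived statistically from individual MICs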
[1] = 20 MDRPAs, EA = 95% ethanol extract
[2] = MDRPAs P1-P20, single use, EA=P. clypearia 10% ethanol extract
[3] = MDRPAs P1-P20, single use, EA=P. clypearia water extract
[4] = single use, 20 MDRPAs, section of the 10% ethanol extract
[5] = single use, 20 MDRPAs, section of the 60% ethanol extract
[6] = single use, 20 MDRPAs, section of the 95% ethanol extract

Method: Determination methods of a Minimal Inhibitory Concentration (MIC) and a Minimum Bactericidal Concentration (MBC) of a test product: the MIC and the MBC of the Pithecellobium clypearia Benth water or ethanol extract to the MDRAB are determined by a microdilution broth method. And it is operated by referring to the microdilution broth method recommended by National Committee for Clinical Laboratory Standards (NCCLS).
By determining the MIC and the MBC of the drug and making statistics of the data to obtain MIC50, MIC90, MBC50 and MBC90, the effect of the MDRA resistance of the drug is evaluated.
Test method: the MDRPA (serial No.: P1-P20) strains are tested and are evaluated with reference to the method in the first embodiment.

- MIC90 [1]: 64 µg/mL (≈ 214 µM)
- MIC Range [1]: 4 to 64 µg/mL
- MIC50 [2]: 32 µg/mL (≈ 107 µM)
- MIC90 [2]: 64 µg/mL (≈ 214 µM)
- MIC Range [2]: 4 to 64 µg/mL
- MIC50 [3]: 32 µg/mL (≈ 107 µM)
- MIC90 [3]: 64 µg/mL (≈ 214 µM)
- MIC Range [3]: 4 to 64 µg/mL
- MIC50 (Pseudomonas aeruginosa): 32 µg/mL (≈ 107 µM)
- MIC90 (Pseudomonas aeruginosa): 64 µg/mL (≈ 214 µM)
- MIC (Pseudomonas aeruginosa, read-out: MIC (single use), strain P1, EA=P. clypearia 10% ethanol extract): 32 µg/mL (≈ 107 µM)
- MIC (Pseudomonas aeruginosa, read-out: MIC (single use), strain P1, EA=P. clypearia water extract): 32 µg/mL (≈ 107 µM)
- MIC (Pseudomonas aeruginosa, read-out: MIC (single use), strain P2, EA=P. clypearia 10% ethanol extract): 64 µg/mL (≈ 214 µM)
- MIC (Pseudomonas aeruginosa, read-out: MIC (single use), strain P2, EA=P. clypearia water extract): 64 µg/mL (≈ 214 µM)
- MIC (Pseudomonas aeruginosa, read-out: MIC (single use), strain P3, EA=P. clypearia 10% ethanol extract): 64 µg/mL (≈ 214 µM)
- MIC (Pseudomonas aeruginosa, read-out: MIC (single use), strain P3, EA=P. clypearia water extract): 64 µg/mL (≈ 214 µM)
- MIC (Pseudomonas aeruginosa, read-out: MIC (single use), strain P4, EA=P. clypearia 10% ethanol extract): 32 µg/mL (≈ 107 µM)
- MIC (Pseudomonas aeruginosa, read-out: MIC (single use), strain P4, EA=P. clypearia water extract): 32 µg/mL (≈ 107 µM)
- MIC (Pseudomonas aeruginosa, read-out: MIC (single use), strain P5, EA=P. clypearia 10% ethanol extract): 64 µg/mL (≈ 214 µM)
- MIC (Pseudomonas aeruginosa, read-out: MIC (single use), strain P5, EA=P. clypearia water extract): 64 µg/mL (≈ 214 µM)
- MIC (Pseudomonas aeruginosa, read-out: MIC (single use), strain P6, EA=P. clypearia 10% ethanol extract): 32 µg/mL (≈ 107 µM)
- MIC (Pseudomonas aeruginosa, read-out: MIC (single use), strain P6, EA=P. clypearia water extract): 32 µg/mL (≈ 107 µM)
- MIC (Pseudomonas aeruginosa, read-out: MIC (single use), strain P7, EA=P. clypearia 10% ethanol extract): 32 µg/mL (≈ 107 µM)
- MIC (Pseudomonas aeruginosa, read-out: MIC (single use), strain P7, EA=P. clypearia water extract): 32 µg/mL (≈ 107 µM)
- MIC (Pseudomonas aeruginosa, read-out: MIC (single use), strain P8, EA=P. clypearia 10% ethanol extract): 64 µg/mL (≈ 214 µM)
- MIC (Pseudomonas aeruginosa, read-out: MIC (single use), strain P8, EA=P. clypearia water extract): 64 µg/mL (≈ 214 µM)
- MIC (Pseudomonas aeruginosa, read-out: MIC (single use), strain P9, EA=P. clypearia 10% ethanol extract): 32 µg/mL (≈ 107 µM)
- MIC (Pseudomonas aeruginosa, read-out: MIC (single use), strain P9, EA=P. clypearia water extract): 32 µg/mL (≈ 107 µM)
- MIC (Pseudomonas aeruginosa, read-out: MIC (single use), strain P10, EA=P. clypearia 10% ethanol extract): 64 µg/mL (≈ 214 µM)
- MIC (Pseudomonas aeruginosa, read-out: MIC (single use), strain P10, EA=P. clypearia water extract): 64 µg/mL (≈ 214 µM)
- MIC (Pseudomonas aeruginosa, read-out: MIC (single use), strain P11, EA=P. clypearia 10% ethanol extract): 8 µg/mL (≈ 26.7 µM)
- MIC (Pseudomonas aeruginosa, read-out: MIC (single use), strain P11, EA=P. clypearia water extract): 8 µg/mL (≈ 26.7 µM)
- MIC (Pseudomonas aeruginosa, read-out: MIC (single use), strain P12, EA=P. clypearia 10% ethanol extract): 32 µg/mL (≈ 107 µM)
- MIC (Pseudomonas aeruginosa, read-out: MIC (single use), strain P12, EA=P. clypearia water extract): 32 µg/mL (≈ 107 µM)
- MIC (Pseudomonas aeruginosa, read-out: MIC (single use), strain P13, EA=P. clypearia 10% ethanol extract): 8 µg/mL (≈ 26.7 µM)
- MIC (Pseudomonas aeruginosa, read-out: MIC (single use), strain P13, EA=P. clypearia water extract): 8 µg/mL (≈ 26.7 µM)
- MIC (Pseudomonas aeruginosa, read-out: MIC (single use), strain P14, EA=P. clypearia 10% ethanol extract): 32 µg/mL (≈ 107 µM)
- MIC (Pseudomonas aeruginosa, read-out: MIC (single use), strain P14, EA=P. clypearia water extract): 32 µg/mL (≈ 107 µM)
- MIC (Pseudomonas aeruginosa, read-out: MIC (single use), strain P15, EA=P. clypearia 10% ethanol extract): 32 µg/mL (≈ 107 µM)
- MIC (Pseudomonas aeruginosa, read-out: MIC (single use), strain P15, EA=P. clypearia water extract): 32 µg/mL (≈ 107 µM)
- MIC (Pseudomonas aeruginosa, read-out: MIC (single use), strain P16, EA=P. clypearia 10% ethanol extract): 16 µg/mL (≈ 53.4 µM)
- MIC (Pseudomonas aeruginosa, read-out: MIC (single use), strain P16, EA=P. clypearia water extract): 16 µg/mL (≈ 53.4 µM)
- MIC (Pseudomonas aeruginosa, read-out: MIC (single use), strain P17, EA=P. clypearia 10% ethanol extract): 16 µg/mL (≈ 53.4 µM)
- MIC (Pseudomonas aeruginosa, read-out: MIC (single use), strain P17, EA=P. clypearia water extract): 16 µg/mL (≈ 53.4 µM)
- MIC (Pseudomonas aeruginosa, read-out: MIC (single use), strain P18, EA=P. clypearia 10% ethanol extract): 32 µg/mL (≈ 107 µM)
- MIC (Pseudomonas aeruginosa, read-out: MIC (single use), strain P18, EA=P. clypearia water extract): 32 µg/mL (≈ 107 µM)
- MIC (Pseudomonas aeruginosa, read-out: MIC (single use), strain P19, EA=P. clypearia 10% ethanol extract): 64 µg/mL (≈ 214 µM)
- MIC (Pseudomonas aeruginosa, read-out: MIC (single use), strain P19, EA=P. clypearia water extract): 64 µg/mL (≈ 214 µM)
- MIC (Pseudomonas aeruginosa, read-out: MIC (single use), strain P20, EA=P. clypearia 10% ethanol extract): 4 µg/mL (≈ 13.4 µM)
- MIC (Pseudomonas aeruginosa, read-out: MIC (single use), strain P20, EA=P. clypearia water extract): 4 µg/mL (≈ 13.4 µM)
- MIC50 [4]: 32 µg/mL (≈ 107 µM)
- MIC90 [4]: 64 µg/mL (≈ 214 µM)
- MIC50 [5]: 32 µg/mL (≈ 107 µM)
- MIC90 [5]: 64 µg/mL (≈ 214 µM)
- MIC50 [6]: 32 µg/mL (≈ 107 µM)
- MIC90 [6]: 64 µg/mL (≈ 214 µM)
Structure (SMILES): C[C@@H](O)[C@H]1C(=O)N2C(C(=O)O)=C(SCCN=CN)C[C@H]12 [IMP, imipenem]
